Measurements as given in patent publication US20240368241A1, “SYNDECAN PEPTIDES” (Queen Mary University of London, priority 2021, published 2024).
“Also recorded” adds a separate entry of the source.

Key:
[1] = system: murine choroid explants; experiment: Ex-vivo angiogenic sprouting assay, murine choroid explants; assay type: cell-based, mouse; settings: 0.5 μM peptide, 30 ng/ml VEGF, Collagen I matrix
Protocol: FIG. 7: QM111T inhibits choroidal neovascularization. Murine choroid explants were embedded in a Collagen I matrix and supplemented with 30 ng/ml VEGF and either 0.5 μM of QM111, QM111T, QM107 or a combination.
Thoracic aortas were dissected from either male wistar rats (˜200 g) or 4-5 week old male C57BL6J mice (both obtained from Charles River, UK). The fat surrounding the aortas was removed as were any branches and the tissue sliced into <1 mm rings. Choroid membranes explants were isolated from 21 to 28 day old male C57BL6J mice. Eyes were punctured with scissors and the iris/cornea/lens and retina removed. The resultant Choroid was then cut into 1 mm3 chunks. After dissection both aortic rings and choroid explants were incubated overnight at 37° C. in Opti-MEM (Thermo Fisher Scientific) prior to embedding on ice in 0.15 ml of 1 mg/ml Collagen I (Millipore) in E4 medium (Thermo Fisher Scientific) in 48 well plates (Corning). After 30 mins incubation at 37° C., to set the Collagen, wells were supplemented with 200 ul Opti-MEM with 1% FBS. For rat aortic rings 10 ng/ml of […] (R and D Systems) was added, for mouse aortic and choroid explants 30 ng/ml was used. Treatments at the concentrations indicated were also added to this and media replenished every 3 days. Angiogenic sprouts from explants were counted after 7 days and expressed as sprouts/ring or explant.

[2] = system: rat aortic rings; experiment: Ex-vivo angiogenic sprouting assay, rat aortic rings; assay type: cell-based; settings: peptides 0.5 μM alone or in combination, n=30-31 rings/condition
Protocol: FIG. 1. […] Schematic diagram showing the GST fusion protein consisting of GST fused at the N-terminus of the complete coding sequence of the murine Syndecan-3 extracellular core protein. This protein was expressed and purified from bacteria and was tested in the rat aortic ring angiogenic sprouting assay. Aortas were dissected from rats before being sliced into 1 mm wide rings. They are then embedded in collagen I with 0.5 μM of either GST or S3ED purified fusion proteins. 10 ng/ml of VEGF-A was then added into feeding media to encourage angiogenesis. After 7 days, angiogenic sprouts were counted. Images were captured on day 7 using a Hamamatsu Orca ER digital camera and processed using Cell M software. Data is from at least 10 rings per condition from 8 […]. (A) Phase contrast micrographs of aortic rings after 7 days. (B) Graph showing the number of sprouts formed after 7 days (*** p≤0.005).
FIG. 4. […] Comparison of the antiangiogenic sequences in the murine and human forms of syndecan-3 (A). Amino acids which are different are highlighted in yellow. Rat aortic rings where treated with 0.5 μM of either QM107, QM111, QM111M or in combination. […]
Thoracic aortas were dissected from either male wistar rats (˜200 g) or 4-5 week old male C57BL6J mice (both obtained from Charles River, UK). […] Angiogenic sprouts from explants were counted after 7 days and expressed as sprouts/ring or explant.

[3] = system: HUVECs; experiment: Scratch wound cell migration assay; assay type: cell-based, human; settings: synthetic peptides alone or in combination
Protocol: FIG. 2. Miniaturization strategy to identify minimum peptide sequence for inhibition of angiogenesis. Schematic diagram showing the series of deletion mutants generated to ascertain the anti-angiogenic peptide sequence contained in syndecan-3 (A). Purified GST fusion proteins were used at a concentration of 0.5 μM in scratch wound migration assays using confluent monolayers of HUEVCs. Wound closure was measured after 7 hours. In this way we identified that the antiangiogenic properties of Syndecan-3 reside between P195 and A221 of the protein.
FIG. 3. […] Comparison of the antiangiogenic sequences in the murine and human forms of syndecan-3 (A). Amino acids which are different are highlighted in yellow. Scratch wound cell migration assays comparing the anti-migratory effects of QM107, QM111 and QM111M on HUVECS (B). […]
Confluent monolayers of HUVECs were scratched with a pipette tip, cells were then washed twice with PBS prior to the addition of growth medium supplemented with either GST fusion proteins or peptide treatments. Wounds were monitored by time lapse microscopy using an Olympus IX81 Microscope Hamamatsu Orca ER digital camera. Regions of interests in the scratch area were recorded using Cell^M software (Olympus) and micrographs of ROIs taken every 30 min for 16 hours with an Olympus IX81 inverted microscope. The initial and final gap was measured using ImageJ software (NIH).

[4] = system: pathological retinal neovascularisation (preretinal tufts); experiment: Oxygen-induced retinopathy (OIR) mouse model; assay type: in vivo; settings: mouse pups, 0.5 μM QM111 injected into eye on return to normoxia vs PBS eye, analysed at P17
Protocol: FIG. 5. […] Data from an oxygen-induced model of retinopathy study. In this study. OIR was generated by exposing mice pups to 75% oxygen for 5 days from P7-P12. On P13, mice are injected with PBS (left eye) and 0.5 μM QM111 (right eye). They were then placed into 20% oxygen from P13-P17 where they underwent hypoxia. which led to neovascularisation taking place. OIR samples were collected at P17 and retinal structures were stained with isolectin GS-IB4. Neovascularisation was quantified by measuring the total areas where preretinal tufts were present. […] Data is from 8 mice.
Neonatal mice (both male and female) at P7 were exposed to 75% oxygen for 5 days with their nursing mothers. At P12, they were returned to normoxia. Animals were euthanized at P12 to determine the area of vaso-obliteration or at P17 to determine the rate of retinal revascularization and pre-retinal neovascularization. […] Sub retinal injections of the treatments described and controls was administered at day P12 upon return to normoxic conditions. Analysis of retinal vasculature was done as previously described. […] Pre-retinal neovascular tufts were readily distinguished from the superficial vascular plexus by focusing just above the inner limiting membrane. Areas of vascular obliteration and pathological neovascularization (neovascular tufts) were quantified using Adobe Photoshop CS3. […]

Substance	angiogenic sprouting from murine choroid explants [1]	angiogenic sprout formation from rat aortic rings [2]	endothelial cell (HUVEC) migration in scratch wound assay [3]	pathological neovascularisation (area of preretinal tufts) in oxygen-induced retinopathy [4]
LPLPLTTVA (listed as Homo sapiens) [QM111T]	inhibited angiogenesis to the same degree as QM111 and QM107			
PPFTATT AVIRTTGVRR LLPLPLTTVA (PPFTATTAVIRTTGVRRLLPLPLTTVA; listed as Homo sapiens) [QM111, human syndecan-3 peptide corresponding to the anti-angiogenic region]		inhibited to a similar degree	inhibited endothelial cell migration to the same degree	reduced pathological angiogenesis; also recorded: blocks pathological neovascularization
QM111M: mouse peptide, 27 amino acids of the anti-angiogenic region (P195-A221) of murine syndecan-3 (PPATATVADVRTTGIQGMLPLPLTTAA; UniProt Q64519 195-221, looked up, fragment)		inhibited to a similar degree	inhibited endothelial cell migration to the same degree	
